Measured values reported in US20250263404A1, “AMINOPYRIDINES AS ACTIVATORS OF PI3 KINASE” (UCL Business Ltd, priority 2021, published 2025).

Columns and labels:
[1] = target: T1, PI3Kα (Homo sapiens, UniProt P42336); assay: ADP-Glo in vitro lipid kinase assay, PI3Kα; format: biochemical; set-up: Full-length p110α was expressed in a complex with full-length p85α (for biochemistry and HDX-MS); 6xHis followed by TEV protease site (N); made in house; host or cells: Spodoptera frugiperda Sf9 (baculovirus co-infection; plasmids OP831 and OP809); details: for Max. activity relative to pY ctrl: relative to pY control; for EC50: in vitro PI3Kα activation
T1 sequence (P42336 whole entry, the tested form may be a part): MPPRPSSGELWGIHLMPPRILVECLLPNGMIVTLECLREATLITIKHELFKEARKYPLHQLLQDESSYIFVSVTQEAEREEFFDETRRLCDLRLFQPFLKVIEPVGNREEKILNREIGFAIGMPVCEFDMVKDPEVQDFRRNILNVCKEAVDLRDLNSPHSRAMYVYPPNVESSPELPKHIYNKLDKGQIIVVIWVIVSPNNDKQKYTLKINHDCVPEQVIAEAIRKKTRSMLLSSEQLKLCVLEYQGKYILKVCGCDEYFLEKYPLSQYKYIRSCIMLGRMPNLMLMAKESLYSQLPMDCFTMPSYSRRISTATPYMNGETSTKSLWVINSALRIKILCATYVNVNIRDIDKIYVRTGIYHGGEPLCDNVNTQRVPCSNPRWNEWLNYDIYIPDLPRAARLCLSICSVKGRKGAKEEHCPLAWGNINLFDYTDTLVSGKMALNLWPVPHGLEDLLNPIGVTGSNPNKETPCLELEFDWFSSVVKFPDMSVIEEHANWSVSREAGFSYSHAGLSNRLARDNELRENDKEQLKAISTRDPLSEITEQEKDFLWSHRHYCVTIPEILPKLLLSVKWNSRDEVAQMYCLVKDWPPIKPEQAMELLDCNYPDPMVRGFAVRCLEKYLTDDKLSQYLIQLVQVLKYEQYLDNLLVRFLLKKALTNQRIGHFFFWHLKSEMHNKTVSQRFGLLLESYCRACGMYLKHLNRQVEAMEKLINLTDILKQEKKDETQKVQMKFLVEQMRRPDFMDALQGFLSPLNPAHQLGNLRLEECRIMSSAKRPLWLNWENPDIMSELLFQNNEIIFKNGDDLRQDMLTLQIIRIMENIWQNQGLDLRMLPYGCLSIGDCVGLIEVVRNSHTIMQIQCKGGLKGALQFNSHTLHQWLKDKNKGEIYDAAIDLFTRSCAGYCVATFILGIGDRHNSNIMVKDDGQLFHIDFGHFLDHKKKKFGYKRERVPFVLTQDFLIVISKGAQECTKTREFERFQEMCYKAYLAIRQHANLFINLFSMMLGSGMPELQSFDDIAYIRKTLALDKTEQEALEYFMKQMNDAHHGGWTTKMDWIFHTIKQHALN
T1 sequence (P27986 whole entry partner, the tested form may be a part): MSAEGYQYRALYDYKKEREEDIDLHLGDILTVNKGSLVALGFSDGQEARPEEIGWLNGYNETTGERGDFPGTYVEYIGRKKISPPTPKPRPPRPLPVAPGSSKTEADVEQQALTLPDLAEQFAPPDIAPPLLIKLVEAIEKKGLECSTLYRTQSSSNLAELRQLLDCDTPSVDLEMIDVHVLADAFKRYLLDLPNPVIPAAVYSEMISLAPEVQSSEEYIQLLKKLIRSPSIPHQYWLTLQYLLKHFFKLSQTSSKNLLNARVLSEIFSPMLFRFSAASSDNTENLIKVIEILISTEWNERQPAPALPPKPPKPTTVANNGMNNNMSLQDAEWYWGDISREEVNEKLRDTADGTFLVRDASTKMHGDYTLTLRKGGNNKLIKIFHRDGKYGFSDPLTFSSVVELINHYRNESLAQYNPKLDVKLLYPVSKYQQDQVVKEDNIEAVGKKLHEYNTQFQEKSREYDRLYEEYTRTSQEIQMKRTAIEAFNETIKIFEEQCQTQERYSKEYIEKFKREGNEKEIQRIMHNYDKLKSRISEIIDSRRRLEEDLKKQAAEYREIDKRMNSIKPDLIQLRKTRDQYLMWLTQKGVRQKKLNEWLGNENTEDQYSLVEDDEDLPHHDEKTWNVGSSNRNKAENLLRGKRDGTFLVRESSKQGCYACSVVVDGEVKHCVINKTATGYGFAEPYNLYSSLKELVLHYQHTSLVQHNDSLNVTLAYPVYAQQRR
Experimental: The effect of 1938 on the in vitro lipid kinase activity of p85α in complex with p110α, p110β or p110δ (further referred to as PI3Kα, PI3Kβ and PI3Kδ) was tested. As a positive control, a bis-phosphorylated phosphopeptide (a PDGF-receptor-derived peptide phosphorylated on Tyr-740 and Tyr-751, hereafter referred to as pY peptide) was used to mimic engagement of the p85α SH2 domains with tyrosine-phosphorylated peptides in membrane-bound receptors and adaptor proteins, known to activate the PI3Kα complex.
Kinase reactions were performed with ADP-Glo kinase assay kit (Promega Corporation). The enzyme, substrate and compounds were diluted in reaction buffer (20 mM HEPES, 50 mM NaCl, 50 mM KCl, 3 mM MgCl2, 1 mM EGTA, 1 mM TCEP, pH 7.4). Final concentrations of PI3Kα and PI3Kδ used were 25 nM and 50 nM for PI3Kβ. Liposomes (5% brain PI(4,5)P2, 20% brain phosphatidylserine, 45% brain phosphatidylethanolamine, 15% brain phosphatidylcholine, 10% cholesterol, 5% sphingomyelin (Avanti Polar Lipids)) were used at a final concentration of 1 mg/ml.
For compound profiling, the reaction mixture contained 2 μl PI3K enzyme, 2 μl compound and/or pY and 2 μl of liposome substrate mixed with ATP. ATP was used at a final concentration of 500 μM for PI3Kα and PI3Kβ and at 200 μM for PI3Kδ, unless otherwise stated. The final DMSO concentration in the assay was 1%. The experiments were performed at room temperature for 3 h using 384 white-polystyrene plates (Corning #3824) before addition of 6 μl of ADP-Glo R1 to terminate the reaction. The plate was incubated for 45 min, followed by addition of 12 μl of ADP-Glo R2 and incubated further for 60 min in the dark. Luminescence was read using a Sense (Hidex) plate reader. […] All analyses were performed using GraphPad Prism 7.
For characterisation of the effects of 1938 on in vitro PI3K enzymology, all reactions were performed at room temperature with 384 white-polystyrene plates (Corning #3574). The final DMSO concentration in the assay was between 0.5%-1.8%. The reaction mixture contained 2 μl PI3K enzyme, 2 μl compound and/or pY and 2 μl of liposome substrate mixed with ATP. ATP was used at a final concentration of 200 μM, unless otherwise stated. The enzyme and compounds were pre-incubated for 10 min prior to addition of substrate. The reaction was allowed to proceed for 45 min at room temperature, before addition of 6 μl of ADP-Glo R1 to terminate the reaction. The plate was incubated for 60 min, followed by addition of 12 μl of ADP-Glo R2 and incubated further for 60 min in the dark. For enzyme kinetic calculations, data was expressed as velocity (pmol of ADP generated/sec). ADP-ATP standard curves were performed according to the manufacturer's instructions, and all analyses were performed using GraphPad Prism 8.

[2] = target: T1, PI3Kα; assay: pAKT S473 ELISA in A549 cells (PI3Kα activation); format: cell-based; set-up: endogenous in cells; host or cells: A549; details: for EC50: A549 cells, 15 min treatment, pAKT S473 ELISA, normalised to Emax of 1 μM insulin, read-out: Av EC50; for Emax at 10 µM: A549, 0.25 h, read-out: <50% response at 10 μM
Experimental: EC50 values were determined by quantifying phosphorylation on S473 residues of Akt in A549 human adenocarcinoma cells by ELISA (enzyme linked immunoadsorbent assay, R&D Systems, DYC887BE). A549 cells were seeded into 96-well plates (50,000 cells/well) in DMEM supplemented with 10% foetal bovine serum and 1% penicillin-streptomyocin. Following 24 h in culture cells were starved for 24 h in serum-free DMEM before 15 minute treatment with a concentration response curve of compounds. Experimental compounds were diluted in DMSO into […] 1:3 concentration response curves in polypropylene V-bottom plates (SLS MIC9050). Concentration response curves were diluted to a 3× stock in serum-free DMEM. Standard 8-point concentration response curves were performed at 50, 16.7, 5.6, 1.9, 0.6, 0.2, 0.07, 0.02 μM and serum-free DMEM containing 0.5% DMSO was used as a negative control. […] A549 cells were seeded at 50,000 cells per well in 96-well plates in DMEM (10% FBS+1% P/S). The next day cells were washed once with PBS before addition of serum-free DMEM for 24 h. On the day of treatment cells, were incubated in fresh serum-free DMEM prior to treatment. Compounds solubilised to 10 mM in DMSO were diluted 1:3 in an 8-point concentration response curve in DMSO. Concentration response curves were diluted in serum-free DMEM by transfer into intermediate plates using a BRAVO liquid handler (Agilent). Intermediate plates were then used to treat cell plates using the BRAVO liquid handler. Compound concentration response curves had atop concentration of 50 μM and a final well concentration of 0.5% DMSO. Cell plates were treated for 15 min at 37° C., 5% CO2 before being washed with ice-cold PBS and lysed in lysis buffer 6 (R&D Systems #895561) and freezing at −80° C. Levels of pAKT-S473 were determined using the phospho-AKT (S473) pan-specific Duoset IC ELISA (R&D Systems #DYC887BE) in 96-well white high-binding plates (Corning #3922) according to manufacturer's instructions. Endpoint luminescence was measured using a Sense (Hidex) platereader. […] Data were transformed and EC50 data were determined by variable slope (4 parameters) non-linear regression using Prism 7 (Graphpad).

| SMILES | EC50 [2] [nM] | Emax at 10 µM [2] [%] | also measured |
| --- | --- | --- | --- |
| CCN1CCN(c2ccc(Nc3nccc(Nc4cccc5c4N(C(C)=O)CC5)n3)cc2)CC1 [Example 2152] |  |  | Max. activity relative to 1938 [1]: 4%; Max. activity relative to pY ctrl [1]: 16 ± 8% |
| COc1cc(Nc2cc(Nc3cccc4c3N(C(C)=O)CC4)ccn2)cc(OC)c1OC [Example 1887] |  |  | activity compared with 1938 (in words) [1]: activities comparable with 1938; EC50 [1]: 36000 ± 5000 nM; Max. activity relative to 1938 [1]: 80%; Max. activity relative to pY ctrl [1]: 318 ± 68% |
| COc1cc(N2CCN(C)CC2)ccc1Nc1cc(Nc2cccc3c2N(C(C)=O)CC3)ccn1 [Example 1889] |  |  | activity compared with 1938 (in words) [1]: activities comparable with 1938; EC50 [1]: 56000 ± 24000 nM; Max. activity relative to 1938 [1]: 102%; Max. activity relative to pY ctrl [1]: 408 ± 110% |
| COc1cc(N2CCN(C)CC2)ccc1Nc1cc(Nc2cccc3c2N(C(C)=O)CC3)cc(C)n1 [10 (1936)] | 5360 | < 50 |  |
| COc1cc(N2CCN(C)CC2)ccc1Nc1cc(Nc2ccc3ncccc3c2)ccn1 [57 (2047)] | > 50000 |  |  |
| CNC(=O)c1ccc(Nc2cc(Nc3cccc4c3N(C(C)=O)CC4)ccn2)cc1 [42 (2019)] | 1370 |  |  |
| CC(=O)N1CCc2cccc(Nc3ccnc(Nc4cccc(S(C)(=O)=O)c4)c3)c21 [102 (2359)] | > 50000 |  |  |
| COc1cc(Nc2cc(Nc3ccc4c(c3)N(C(C)=O)CC4)ccn2)cc(OC)c1OC [6 (1907)] | 840 | < 50 |  |
| COCCOc1cc(N2CCN(C)CC2)ccc1Nc1cc(Nc2cccc3c2N(C(C)=O)CC3)ccn1 [33 (2009)] | 5230 |  |  |
| CC(=O)N1CCc2cccc(Nc3ccnc(Nc4ccc(-c5ccccc5)cn4)c3)c21 [74 (2079)] | > 50000 |  |  |
| COc1cc(N2CCN(C)CC2)ccc1Nc1cc(Nc2cccc(-n3ccnc3)c2)ccn1 [65 (2063)] | 1530 |  |  |
| COc1cc(N2CCN(C)CC2)ccc1Nc1cc(Nc2ccccc2)ccn1 [23 (1971)] | 4530 |  |  |
| COc1cc(N2CCN(C)CC2)ccc1Nc1cc(Nc2ccnc3ccccc23)ccn1 [50 (2029)] | 1360 |  |  |
| CCN1CCN(c2ccc(Nc3cccc(Nc4cccc5c4N(C(C)=O)CC5)c3)cc2)CC1 [99 (2346)] | > 50000 | < 50 |  |
| COc1cc(Nc2cc(Nc3ccccc3)ccn2)cc(OC)c1OC [1 (1902)] | ≥ 50000 |  |  |
| COc1ccc(Nc2ccnc(Nc3ccc(N4CCN(C)CC4)cc3OC)c2)cc1NC(C)=O [56 (2046)] | 1280 |  |  |
| COc1cc(C#N)ccc1Nc1cc(Nc2cccc3c2N(C(C)=O)CC3)ccn1 [100 (2357)] | > 50000 |  |  |
| COc1cc(N2CCN(C)CC2)ccc1Nc1cc(Nc2ncccc2C#N)ccn1 [67 (2066)] | > 50000 | < 50 |  |
| COc1cc(N2CCN(C)CC2)ccc1Nc1nccc(Nc2cccc3c2N(C(C)=O)CC3)c1F [18 (1951)] | 3080 |  |  |
| CNC(=O)c1ccc(Nc2ccnc(Nc3ccc4c(c3)CCN4C(C)=O)c2)cc1 [87 (2112)] | > 27000 | < 50 |  |
| CNC(=O)c1ccc(Nc2cc(Nc3cccc4c3N(C(C)=O)CC4)ccn2)c(OC)c1 [93 (2349)] | 5180 |  |  |
| COc1cc(N2CCN(C)CC2)ccc1Nc1cc(Nc2ccc3scnc3c2)ccn1 [51 (2031)] | 310 |  |  |
| COc1cc(N2CCN(C)CC2)ccc1Nc1cc(Nc2cccc(-c3ccccn3)c2)ccn1 [59 (2052)] | 550 | < 50 |  |
| COc1cc(N2CCOCC2)ccc1Nc1cc(Nc2cccc3c2N(C(C)=O)CC3)ccn1 [7 (1912)] | 540 | < 50 |  |
| COc1cc(Nc2cc(Nc3ccc4c(c3)CCN4C(C)=O)ccn2)cc(OC)c1OC [5 (1906)] | 440 | < 50 |  |
| COCCN1CCN(c2ccc(Nc3cc(Nc4cccc5c4N(C(C)=O)CC5)ccn3)c(OC)c2)CC1 [27 (1994)] | 1300 |  |  |
| COc1cc(N2CCN(C)CC2)ccc1Nc1cc(Nc2cccc3c2N(C(=O)C(C)C)CC3)ccn1 [15 (1943)] | 2390 |  |  |
| COc1cc(N2CCN(Cc3ccc(C)cc3)CC2)ccc1Nc1cc(Nc2cccc3c2N(C(C)=O)CC3)ccn1 [26 (1993)] | > 50000 |  |  |

Continued, in another order:

| EC50 [2] [nM] | Emax at 10 µM [2] [%] | SMILES | also measured |
| --- | --- | --- | --- |
| > 50000 |  | CC(=O)N1CCc2cccc(Nc3ccnc(Nc4cc5ccccc5cn4)c3)c21 [44 (2021)] |  |
| 5530 | < 50 | COc1cc(N2CCN(C)CC2)ccc1Nc1nccc(Nc2cccc3c2N(C(C)=O)CC3)c1C [16 (1944)] |  |
| 2640 |  | CC(=O)N1CCc2cccc(Nc3ccnc(Nc4ccc(N5CCN(C)CC5)cc4)c3)c21 [11 (1937)] |  |
| 590 | < 50 | CC(=O)N1CCc2cccc(Nc3ccnc(-c4cnn(C5CCNCC5)c4)c3)c21 [R5 (1962)] |  |
| 1760 | < 50 | CNC(=O)c1cccc(Nc2cc(Nc3cccc4c3N(C(C)=O)CC4)ccn2)c1 [47 (2026)] |  |
| 4000 |  | CC(=O)N1CCc2cccc(Nc3ccnc(Nc4cccc5ncccc45)c3)c21 [68 (2067)] |  |
| 2090 |  | CCN1CCN(c2ccc(Nc3cc(Nc4cc(C(C)C)nn4C)ccn3)cc2)CC1 [77 (2103)] |  |
| 2610 |  | CNC(=O)c1ccc(Nc2ccnc(Nc3ccc(N4CCN(C)CC4)cc3OC)c2)cc1 [61 (2055)] |  |
| > 50000 |  | CC(=O)N1CCc2cccc(Nc3ccnc(Nc4ccc(OCc5ccccc5)cc4)c3)c21 [37 (2014)] |  |
| 500 | < 50 | CC(=O)N1CCc2ccc(Nc3cc(Nc4cccc5c4N(C(C)=O)CC5)ccn3)cc21 [73 (2073)] |  |
| 4380 |  | COc1cc(N2CCCCC2)ccc1Nc1cc(Nc2cccc3c2N(C(C)=O)CC3)ccn1 [13 (1941)] |  |
| 1740 | < 50 | CC(=O)N1CCc2cccc(Nc3ccnc(Nc4ccc(C#N)cc4)c3)c21 [41 (2018)] |  |
| 7850 |  | CC(=O)N1CCc2cccc(Nc3ccnc(Nc4cccc(N5CCN(C)CC5)c4)c3)c21 [22 (1968)] |  |
| 1480 | < 50 | CC(=O)N1CCc2cccc(Nc3ccnc(Nc4nn(C)c5ccccc45)c3)c21 [48 (2027)] |  |
| > 50000 |  | C#Cc1cccc(Nc2cc(Nc3cccc4c3N(C(C)=O)CC4)ccn2)c1 [69 (2069)] |  |
| 1530 |  | CCN1CCN(c2ccc(Nc3cc(Nc4cccc5c4N(C(C)=O)CC5)ccn3)cc2)CC1 [12 (1938)] |  |
